Assay results published in US20030031647A1, “IFN-alpha and amantadine for treating hepatitis C” (priority 1997, published 2003).

What was measured:
[1] = tested on: Hepatitis C Virus; assay: HCV RNA in cultured PBMC from chronic hepatitis C patients (RT-PCR, AMPLICOR HCV MONITOR assay); assay type: cell-based, Hepatitis C virus (subtype 1b prevalent) in human PBMC; settings: for Number of cases with HCV RNA Negative / Number of cases with reduction in HCV RNA concentration >25% / Number of cases with reduction in HCV RNA concentration >50% / Number of cases with reduction in HCV RNA concentration >75%: IFN-α2A 0 IU/ml, PBMC, n = 15
Experimental: Antiviral Effect of Amantadine and IFN-α2A Against Hepatitis C Virus on Peripheral Blood Mononuclear Cells (PBMC) from Chronic Hepatitis C Patients
Mononuclear cells from patients with chronic hepatitis C (serum anti-HCV and HCV RNA positive with histologically proven chronic hepatitis) were analyzed for the presence of HCV RNA, using reverse transcription and PCR techniques with universal primers from the highly conserved 5′ non-coding region of the HCV genome (Navas et al., J. Hepatol. 21, 182-186 (1994)). Typing and subtyping of HCV genomes were performed by RFLP analysis of PCR products (Navas et al., J. Clin. Microbiol. 21, 317-321(1997)). For the purpose of this study, only cases infected by a single genotype have been considered, in order to minimize the possible interference of multiple genotypes, in the subject population, HCV subtype 1b was prevalent (Pernas et al., J. Gen. Virol. 76, 415-420(1995)). Thus, HCV RNA-positive PBMC obtained from 15 patients have been analyzed in vitro for the effects of treatment. PBMC from 10 matched healthy donors have been used as controls and analyzed similarly.
(§1) PBMC were isolated from heparinized venous blood by Ficoll-Hypaque gradient sedimentation. The interphase PBMC were isolated, washed twice with phosphate-buffered saline, and suspended in RPMI. The viability of these cells was assessed by trypan blue exclusion. PBMC were cultured in duplicate at a concentration of 2×10^6 viable cells/ml in 6-well tissue culture dusters, in a humid atmosphere with 5% CO2 for 7 days. The cultures have been maintained without mitogens (medium alone) or were stimulated with single mitogens (Phytohemagglutinin (PHA) or Lipopolysaccharide (LPS) or with PHA plus LPS (10 μg/ml each)(Martin et al., Cytokine 8, 313-317 (1996)). PBMC proliferation, and the possible drug-induced cytotoxicity, were measured using non-isotopic cell-proliferation and cytotoxicity assays.
The effect of experimental treatments with amantadine alone, in combination with IFN-α2A and those of IFN-α2A alone, have been established by testing HCV RNA in cultured mononuclear cells, compared with untreated PBMC from patients (Martin et al., supra); specificity controls were as described previously by Navas et al. in J. Hepatol. 21, 182-186 (1994). Treatment of mononuclear cells form healthy donors with amantadine alone, in combination with IFN-α2A or with IFN-α2A alone, served as controls. Changes in HCV RNA concentrations were measured by the AMPLICOR™ HCV MONITOR assay (Roche Diagnostic System, Inc., Branchburg).

[2] = tested on: PBMC; assay: PBMC viability, proliferation and cytotoxicity (non-isotopic cell-proliferation and cytotoxicity assays); assay type: cell-based, human; settings: for PBMC proliferation: PBMC from healthy donors
Experimental: as §1

[3] = amantadine 1-5 μM, cultured PBMC from HCV patients and healthy donors

## NC12CC3CC(CC(C3)C1)C2 [Amantadine, tricyclo[3.3.1.1^3,7]decane-1-amine]
[1]; 2 μM amantadine, 1/15 patients
  PBMC cultures in which HCV RNA became negative: 7%
[1]; 5 μM amantadine, 3/15 patients
  PBMC cultures in which HCV RNA became negative: 20%
[1]; Amantadine 1 μM
  Number of cases with HCV RNA Negative: 0
  Number of cases with reduction in HCV RNA concentration >25%: 3
  Number of cases with reduction in HCV RNA concentration >50%: 2
  Number of cases with reduction in HCV RNA concentration >75%: 3
[1]; Amantadine 2 μM
  Number of cases with HCV RNA Negative: 1
  Number of cases with reduction in HCV RNA concentration >25%: 5
  Number of cases with reduction in HCV RNA concentration >50%: 2
  Number of cases with reduction in HCV RNA concentration >75%: 4
[1]; Amantadine 5 μM
  Number of cases with HCV RNA Negative: 3
  Number of cases with reduction in HCV RNA concentration >25%: 2
  Number of cases with reduction in HCV RNA concentration >50%: 2
  Number of cases with reduction in HCV RNA concentration >75%: 3
[2]; amantadine 50 μM
  PBMC proliferation: slightly decreased PBMC proliferation
[2]; amantadine 500 μM
  PBMC proliferation: marked anti-proliferative effect
[2]; [3]
  cell viability: did not affect the cell viability
  response to mitogens: minor effects on the response to mitogens
